The text below walks through data of US7635696B2, “Isoxazoline-indole derivatives with an improved antipsychotic and anxiolytic activity” (Janssen Pharmaceutica N.V., priority 2004, dated 2009).

In assay [1] the target is T1, Human Dopamine D2L receptor (Homo sapiens, UniProt P14416).
T1 construct: expressed in transfected cells; host or cells: CHO cells
Description: Binding experiment for dopamine D2 receptor ([3H]Spiperone). The note with it: D2L-transfected CHO cell membranes. How it is done: (§1) The interaction of the compounds of Formula (I) with dopamine-receptors, h5HT-transporter and h5HT1A receptor was assessed in in vitro radioligand binding experiments. In general, a low concentration of a radioligand with a high binding affinity for a particular receptor or transporter is incubated with a sample of a tissue preparation enriched in a particular receptor or transporter or with a preparation of cells expressing cloned human receptors in a buffered medium. During the incubation, the radioligand binds to the receptor or transporter. When equilibrium of binding is reached, the receptor bound radioactivity is separated from the non-bound radioactivity, and the receptor- or transporter-bound activity is counted. The interaction of the test compounds with the receptor is assessed in competition binding experiments. Various concentrations of the test compound are added to the incubation mixture containing the receptor- or transporter preparation and the radioligand. The test compound in proportion to its binding affinity and its concentration inhibits binding of the radioligand.
Human Dopamine D2L receptor-transfected CHO cells were collected by scraping into ice-cold Tris-HCl buffer (50 mM, pH 7.4). The suspension was centrifuged (23 500×g, 10 min, 4° C.) and pellets stored at −70° C. until required. They were then thawed and briefly homogenised using an Ultra-Turrax T25 homogeniser prior to dilution to an appropriate protein concentration optimised for specific and non-specific binding. [^3H]Spiperone (NEN, specific activity ˜70 Ci/mmol) was diluted in Tris-HCl assay buffer containing NaCl, CaCl2, MgCl2, KCl (50, 120, 2, 1, and 5 mM respectively, adjusted to pH 7.7 with HCl) at a concentration of 2 nmol/L. Prepared radioligand (50 μl) was then incubated (30 min, 37° C.) with membrane preparations pre-diluted to an appropriate protein concentration (400 μl), and with 50 μl of either the 10% DMSO control, Butaclamol (10^−6 mol/L final concentration), or compound of interest. Membrane-bound activity was detected by filtration through a Packard Filtermate harvester onto Unifilterplates, washing with ice-cold Tris-HCl buffer (50 mM; pH8.0; 3×4 ml). Filters were allowed to dry before adding scintillation fluid and counting in a Topcount scintillation counter. % Specific bound and competition binding curves were calculated using S-Plus software (Insightful).

The target of assay [2] is T2, Human Dopamine D3 receptor (Homo sapiens, UniProt P35462).
T2 construct: expressed in transfected cells; host or cells: CHO cells
Description: Binding experiment for dopamine D3 receptor ([125I]Iodosulpride). The note with it: transfected CHO cell membranes. As to the method: as §1
Human Dopamine D3 receptor-transfected CHO cells were collected by scraping into ice-cold Tris-HCl buffer (50 mM, pH 7.4). The suspension was centrifuged (23 500×g, 10 min, 4° C.) and pellets stored at −70° C. until required. They were then thawed and briefly homogenised using an Ultra-Turrax T25 homogeniser prior to dilution to an appropriate protein concentration optimised for specific and non-specific binding. [^125I]Iodosulpride (Amersham, specific activity 2000 Ci/mmol) was diluted in Tris-HCl assay buffer containing NaCl, CaCl2, MgCl2, KCl and BSA (50, 120, 2, 1, 5 mM, 0.1% respectively, adjusted to pH 7.7 with HCl) at a concentration of 2 nmol/L. Prepared radioligand (20 μl) was incubated (60 min, RT) and with 20 μl of either the 10% DMSO control, Risperidone (10^−6 mol/L final concentration), or compound of interest, then with membrane preparations (80 μl). Overnight incubation followed after addition of WGA-coated PVT SPA beads (250 μl; Amersham) and membrane-bound counts measured in a Wallac Microbeta. % Specific bound and competition binding curves were calculated using S-Plus software (Insightful).

In the next assay the target is T3, Human 5HT1A receptor (Homo sapiens, UniProt P08908).
T3 construct: expressed in transfected cells; host or cells: L929 cells (stably transfected)
T3 sequence (P08908 1-422): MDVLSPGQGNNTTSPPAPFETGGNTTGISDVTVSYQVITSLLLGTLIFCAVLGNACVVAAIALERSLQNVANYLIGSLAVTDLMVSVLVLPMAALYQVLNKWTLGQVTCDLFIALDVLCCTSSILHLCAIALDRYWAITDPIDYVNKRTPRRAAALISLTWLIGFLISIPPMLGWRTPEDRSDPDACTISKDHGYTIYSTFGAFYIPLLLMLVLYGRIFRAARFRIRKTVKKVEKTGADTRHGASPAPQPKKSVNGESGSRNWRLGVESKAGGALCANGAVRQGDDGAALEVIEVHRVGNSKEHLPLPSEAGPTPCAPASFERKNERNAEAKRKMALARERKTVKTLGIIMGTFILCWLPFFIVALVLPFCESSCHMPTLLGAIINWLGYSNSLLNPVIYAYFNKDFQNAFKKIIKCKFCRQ
The assay is described as follows: Binding experiment for 5-HT1A receptor ([3H]8OHDPAT). The note with it: transfected L929 cell membranes, [3H]8OHDPAT. As to the method:
as §1
Human 5HT1A receptor-transfected L929 cells were collected by scraping into ice-cold Tris-HCl buffer (50 mM, pH 7.4). The suspension was centrifuged (23 500×g, 10 min, 4° C.) and pellets stored at −70° C. until required. They were then thawed and briefly homogenised using an Ultra-Turrax T25 homogeniser prior to dilution to an appropriate protein concentration optimised for specific and non-specific binding. [^3H]80HDPAT (NEN, specific activity 127 Ci/mmol) was diluted in Tris-HCl assay buffer containing CaCl2 (50 mM and 4 mM, respectively; pH 7.7) at a concentration of 5 nmol/L. Prepared radioligand (50 μl) was then incubated (30 min, 37° C.) with membrane preparations from L929 cells stably-transfected with the h5HT1A gene construct (400 μl) and with 50 μl of either the 10% DMSO control, spiroxatrine (10^−6 mol/L final concentration), or compound of interest. Membrane-bound activity was detected by filtration through a Packard Filtermate harvester onto Unifilterplates, washing with ice-cold Tris-HCl buffer (3×4 ml), followed by drying. Scintillation fluid was added and membranes were counted in a Topcount scintillation counter. % Specific bound and competition binding curves were calculated using S-Plus software (Insightful).

A further assay concerns the target T4, human 5HT transporter (Homo sapiens, UniProt P31645).
T4 construct: host or cells: HEK cells
The assay is described as follows: Binding experiment for 5-HT transporter ([3H]Paroxetine). The note with it: transfected HEK cell membranes, [3H]Paroxetine. As to the method:
as §1
Frozen human 5HT transporter-transfected HEK cells (Perkin Elmer, Brussels) were thawed and briefly homogenised using an Ultra-Turrax T25 homogeniser prior to dilution to an appropriate protein concentration optimised for specific and non-specific binding. [^3H]Paroxetine (NEN, specific activity 20 Ci/mmol) was diluted in Tris-HCl assay buffer containing NaCl and KCl (50 mM, 120 mM and 5 mM, respectively; pH 7.4) at a concentration of 5 nmol/L. Prepared radioligand (25 μl) was then incubated (60 min, 25° C.) with membrane preparations (200 μl) and with 25 μl of either 10% DMSO control, Inipramine (10^−6 mol/L final concentration), or compound of interest. Membrane-bound activity was detected by filtration through a Packard Filtermate harvester onto Unifilterplates pre-soaked in 0.1% PEI, washing with ice-cold assay buffer (3×4 ml). Filters were dried prior to addition of scintillation fluid and then counting in a Topcount scintillation counter. % Specific bound and competition binding curves were calculated using S-Plus software (Insightful).

T2 sequence (P35462 whole entry): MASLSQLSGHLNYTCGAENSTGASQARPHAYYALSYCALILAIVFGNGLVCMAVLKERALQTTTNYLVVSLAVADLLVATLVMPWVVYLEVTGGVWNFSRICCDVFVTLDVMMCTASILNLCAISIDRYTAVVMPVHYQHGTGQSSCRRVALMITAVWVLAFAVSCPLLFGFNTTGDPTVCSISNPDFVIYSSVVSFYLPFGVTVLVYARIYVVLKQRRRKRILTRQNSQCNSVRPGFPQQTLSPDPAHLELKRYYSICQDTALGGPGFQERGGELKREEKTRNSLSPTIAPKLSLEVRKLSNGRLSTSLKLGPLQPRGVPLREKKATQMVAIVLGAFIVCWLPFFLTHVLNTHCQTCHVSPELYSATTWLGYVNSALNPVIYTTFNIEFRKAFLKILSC
T1 sequence (P14416 whole entry): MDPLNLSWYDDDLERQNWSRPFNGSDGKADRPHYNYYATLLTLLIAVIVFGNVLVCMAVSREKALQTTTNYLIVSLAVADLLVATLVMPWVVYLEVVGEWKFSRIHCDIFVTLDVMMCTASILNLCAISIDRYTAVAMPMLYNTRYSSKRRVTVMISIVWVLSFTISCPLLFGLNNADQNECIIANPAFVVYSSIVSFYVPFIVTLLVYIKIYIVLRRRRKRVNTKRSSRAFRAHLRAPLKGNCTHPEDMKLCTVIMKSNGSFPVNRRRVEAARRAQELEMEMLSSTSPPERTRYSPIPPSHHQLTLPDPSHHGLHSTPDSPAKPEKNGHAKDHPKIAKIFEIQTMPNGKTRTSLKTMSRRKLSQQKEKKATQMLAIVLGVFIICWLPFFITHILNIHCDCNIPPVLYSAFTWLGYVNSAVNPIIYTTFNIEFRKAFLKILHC
T4 sequence (P31645 whole entry): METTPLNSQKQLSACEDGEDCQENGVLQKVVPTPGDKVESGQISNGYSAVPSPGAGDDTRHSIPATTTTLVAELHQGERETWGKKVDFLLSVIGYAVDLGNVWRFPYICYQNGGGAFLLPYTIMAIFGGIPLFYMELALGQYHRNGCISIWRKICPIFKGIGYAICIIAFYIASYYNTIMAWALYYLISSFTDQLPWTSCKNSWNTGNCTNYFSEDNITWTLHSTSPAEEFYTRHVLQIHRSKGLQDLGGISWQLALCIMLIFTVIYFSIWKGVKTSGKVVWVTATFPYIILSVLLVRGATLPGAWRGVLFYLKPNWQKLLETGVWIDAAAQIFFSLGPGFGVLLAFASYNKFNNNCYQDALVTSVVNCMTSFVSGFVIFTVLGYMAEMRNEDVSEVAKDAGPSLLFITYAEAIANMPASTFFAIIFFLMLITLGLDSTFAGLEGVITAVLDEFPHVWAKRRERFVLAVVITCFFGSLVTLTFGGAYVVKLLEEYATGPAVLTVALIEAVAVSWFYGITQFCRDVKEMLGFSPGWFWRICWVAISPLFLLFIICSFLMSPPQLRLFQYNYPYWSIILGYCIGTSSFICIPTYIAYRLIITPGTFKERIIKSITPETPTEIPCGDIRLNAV

For the compound `COc1cc2c(cc1OC)C1=NOC(CN3CCC(c4c[nH]c5ccc(C#N)cc45)CC3)C1CO2` (racemic) [Compound 24], in assay [1], the “pIC50 D2” value is listed as 6.4. The “pIC50 D3” value in assay [2] is on record as 6.9. For the same compound, the “pIC50 5-HT1A” value on Human 5HT1A receptor is 8.7. Further, the “pIC50 5HTT” value on human 5HT transporter was 7.4.
`COc1cc2c(cc1OC)C1=NOC(CN3CC=C(c4c[nH]c5ccc(Cl)cc45)CC3)C1CO2` (racemic) [Compound 25]: in assay [1], the “pIC50 D2” value is reported as 6.6. Moreover, in assay [2], the “pIC50 D3” value is given as 6.9. In addition, on Human 5HT1A receptor, the “pIC50 5-HT1A” value came out at 8.3. Further, the “pIC50 5HTT” value at human 5HT transporter worked out at 7.1.
The matching figures for `COc1cc2c(cc1OC)C1=NOC(CN3CCC(c4c[nH]c5cc(F)ccc45)CC3)C1CO2` (racemic) [Compound 26]: 7.9, 6.7, 8.2 and 7.6.
The matching figures for `COc1cc2c(cc1OC)C1=NOC(CN3CC=C(c4c[nH]c5cc(F)ccc45)CC3)C1CO2` (racemic) [Compound 27]: 6.9, 6.4, 7.2 and 7.6.
`COc1cc2c(cc1OC)C1=NOC(CN3CCC(c4c[nH]c5c(F)cccc45)CC3)C1CO2` (racemic) [Compound 30]: the “pIC50 D2” value in assay [1] was 6.0. Further, the “pIC50 D3” value in assay [2] is reported as 6.4. The “pIC50 5-HT1A” value at Human 5HT1A receptor was found to be 7.4. The “pIC50 5HTT” value at human 5HT transporter was determined as 6.5.
For `COc1cc2c(cc1OC)C1=NOC(CN3CCC(c4c[nH]c5ccc(C)cc45)CC3)C1CO2` (racemic) [Compound 31], the IC50 in assay [1] (read-out: pIC50 D2 (converted)) was 398 nM; in assay [2] (read-out: pIC50 D3 (converted)), 398 nM; at Human 5HT1A receptor (read-out: pIC50 5-HT1A (converted)), 3.16 nM; at human 5HT transporter (read-out: pIC50 5HTT (converted)) it was 200 nM.
For the compound `COc1cc2c(cc1OC)C1=NOC(CN3CCC(c4c[nH]c5ccc(Cl)cc45)CC3)C1CO2` (racemic) [Compound 32], the “pIC50 D2” value in assay [1] was 6.8. The “pIC50 D3” value in assay [2] came out at 6.6. Besides, at Human 5HT1A receptor, the “pIC50 5-HT1A” value was found to be 8.5. For the same compound, at human 5HT transporter, the “pIC50 5HTT” value was 7.4.
In the case of `COc1cc2c(cc1OC)C1=NOC(CN3CC=C(c4c[nH]c5ccc(F)cc45)CC3)C1CO2` (single isomer, unassigned) [Compound 3], in assay [1], the “pIC50 D2” value came to 6.0. In addition, the “pIC50 D3” value in assay [2] is 7.0. Besides, the “pIC50 5-HT1A” value on Human 5HT1A receptor came to 6.8. Further, at human 5HT transporter, the “pIC50 5HTT” value is recorded as 7.4.
Regarding `COc1cc2c(cc1OC)C1=NOC(CNCCCc3c[nH]c4ccc(F)cc34)C1CO2` (single isomer, unassigned) [Compound 4], in assay [1], the “pIC50 D2” value worked out at 6.1. Moreover, the “pIC50 D3” value in assay [2] was found to be 6.7. In addition, on Human 5HT1A receptor, the “pIC50 5-HT1A” value was found to be 8.6. Besides, the “pIC50 5HTT” value at human 5HT transporter is on record as 7.8.
For the compound `COc1cc2c(cc1OC)C1=NOC(CNCCCc3c[nH]c4ccc(F)cc34)C1CO2` (single isomer, unassigned) [Compound 5], the “pIC50 D2” value in assay [1] is on record as 6.6. Also, the “pIC50 D3” value in assay [2] was found to be 7.0. Besides, on Human 5HT1A receptor, the “pIC50 5-HT1A” value is recorded as >9. In addition, at human 5HT transporter, the “pIC50 5HTT” value was 7.2.
For the compound `COc1cc2c(cc1OC)C1=NOC(CN3CC=C(c4c[nH]c5ccccc45)CC3)C1CO2` (single isomer, unassigned) [Compound 6], in assay [1], the “pIC50 D2” value is reported as <6. In addition, the “pIC50 D3” value in assay [2] is given as 6.2. In addition, the “pIC50 5-HT1A” value at Human 5HT1A receptor was determined as 6.6. In addition, at human 5HT transporter, the “pIC50 5HTT” value was 7.1.
As to `COc1cc2c(cc1OC)C1=NOC(CN3CCC(c4c[nH]c5ccc(F)cc45)CC3)C1CO2` (single isomer, unassigned) [Compound 11], in assay [1], the “pIC50 D2” value worked out at 7.2. In addition, in assay [2], the “pIC50 D3” value is on record as 7.2. Further, on Human 5HT1A receptor, the “pIC50 5-HT1A” value worked out at 8.9. On human 5HT transporter, the “pIC50 5HTT” value stood at 6.9.
Consider `COc1cc2c(cc1OC)C1=NOC(CN3CC=C(c4c[nH]c5ccc(F)cc45)CC3)C1CO2` (single isomer, unassigned) [Compound 12], for which the “pIC50 D2” value in assay [1] is recorded as 6.5. Besides, the “pIC50 D3” value in assay [2] is given as 7.3. The “pIC50 5-HT1A” value on Human 5HT1A receptor is given as 7.6. The “pIC50 5HTT” value on human 5HT transporter turned out to be 8.0.
As to `COc1cc2c(cc1OC)C1=NOC(CN3CC=C(c4c[nH]c5cccc(F)c45)CC3)C1CO2` (single isomer, unassigned) [Compound 13], in assay [1], the “pIC50 D2” value is on record as 6.2. The “pIC50 D3” value in assay [2] is given as 6.8. At Human 5HT1A receptor, the “pIC50 5-HT1A” value was 8.7. Besides, the “pIC50 5HTT” value on human 5HT transporter is given as 7.7.
The matching figures for `COc1cc2c(cc1OC)C1=NOC(CN3CC=C(c4c[nH]c5ccccc45)CC3)C1CO2` (single isomer, unassigned) [Compound 14]: 6.8, 6.5, 8.3 and 7.5.
In the same order, the values of `COc1cc2c(cc1OC)C1=NOC(CN3CCC(c4c[nH]c5ccc(F)cc45)CC3)C1CO2` (single isomer, unassigned) [Compound 15] are 6.1, 6.4, 7.2 and 7.1.
For the compound `COc1cc2c(cc1OC)C1=NOC(CN3CC=C(c4c[nH]c5cccc(F)c45)CC3)C1CO2` (single isomer, unassigned) [Compound 16], the “pIC50 D2” value in assay [1] is given as 6.0. The “pIC50 D3” value in assay [2] was 6.5. Also, the “pIC50 5-HT1A” value at Human 5HT1A receptor is on record as 7.1. Also, the “pIC50 5HTT” value at human 5HT transporter was 6.9.
